Here are results for 2 molecules from patent publication US20120141390A1, “Natural Preservatives and Antimicrobial Agents” (priority 2007, published 2012).

Holding throughout (assay): Microplate antibacterial assay (optical density at 540 nm)
Common to all, as to format: cell-based

The test system of assay [1] is Proteus vulgaris ACM 4730. To be noted: 37° C., 22 h; for MIC0: highest concentration with no inhibition of growth; for MIC100: lowest concentration giving 100% inhibition. As to the method:
(§1) Bacterial strains and growth conditions: Test organisms used in the assay were Staphylococcus aureus strain 6571 (NCTC—National Collection of Type Cultures, Health Protection Agency Centre for Infection, London, UK), Streptococcus mutans ACM 969 and Proteus vulgaris ACM 4730, were supplied by the Australian Collection of Microorganisms (ACM), University of Queensland. The test organisms were grown for 24 h in Tryptone Soya Yeast Extract Broth (TSYEB) (Oxoid CM 129B, Basingstoke, UK), 30 g/L; yeast extract (Oxoid CM19), 6 g/L. The inoculum was quantified by measuring the optical density (absorbance) at 540 nm and adjusted to 0.5 absorbance with TSYEB.
(§2) Preparation and dilution of bacterial strains: An inoculum was prepared by serially diluting (1:1) the overnight culture of the test organisms in TSYEB broth 22 times. The dilutions from 11-22 were used on the 96 well microlitre plate. After the dilutions were made the lowest dilution was plated on Plate Count Agar (Oxoid CM0463) for all the test organisms to confirm the bacterial count.
(§3) Preparation of Polyphenol Powder from Molasses: the Polyphenol Powder from Molasses (0.1 g) was dissolved in 10 ml of TSYEB. This solution was diluted in TSYEB starting at a concentration of 1% (w/v) and diluted to 0.0005% (w/v).
(§4) Preparation of Antibiotic Solutions: the Antibiotics Penicillin G and Oxytetracyclin hydrochloride from Sigma-Aldrich (St. Louis, Mo.) were used in this study. 0.01 g each of Penicillin G and Oxytetracyclin were dissolved in 20 ml of TSYEB.
(§5) The antibiotic solutions of Penicillin G and Oxytetracyclin were diluted in TSYEB (1:1) starting at a concentration of 0.05% (w/v) and diluted to 2.44×10^−5% (w/v).
(§6) Microplate assay procedure: Flat bottom 96 well sterile microtiter plates with lid to prevent cross contamination (Sarstedt, Nümbrecht, Germany) were used for the study. Each 96 well microtiter plate supported one row of wells containing the medium alone (sterility and negative control). Three rows from the first row of wells contained 1:1 dilutions of test organisms (bacterial controls equivalent to 10^5 cfu/ml in the left most well to 10^2 cfu/ml in the right most well) and the polyphenol solution from molasses highest to the lowest concentration (1% to 0.0005 w/v). Each of the combinations of polyphenol solution and bacterial cells were done in triplicate measurements. The next three rows of wells contained the same number of bacterial dilutions but the polyphenol solution was from the lowest to the highest concentration (0.0005% to 1% w/v). Each of the combinations of polyphenol solution and bacterial cells were done in triplicate measurements. The remaining row contained the same number of bacterial dilutions with growth media and polyphenol solution and was called the positive control. Replicates (n=6) of the positive control with no polyphenol solution was run on a separate plate for test organisms. Each 300 μl well contained 50 μl of inoculum, 150 μL of polyphenol solution. Each negative or sterility control well contained 200 μl of TSYEB broth. Each positive control well contained 50 μl of inoculum, 150 μl of TSYEB broth.
(§7) Penicillin G and Oxytetracyclin hydrochloride were used as reference standards to determine the sensitivity of test organisms and to compare the antimicrobial activity of the polyphenol solution with that of the antibiotics.
(§8) Optical density (OD) was determined in a spectrophotometer Sunrise-Basic Tecan (Grödig, Austria) at 540 nm. OD was determined prior to incubation and represents the spectrophotometric reading at time zero (T0). Plates were placed in an incubator at 37° C. and incubated for 22 h. Streptococcus mutans was incubated at 37° C. for 22 and 44 h. The solutions in the plates were mixed using a multichannel pipette to prevent clumping prior to reading the OD in the spectrophotometer after 22 h (T22).
(§9) Analysis of results: The calculations for Percent Inhibition were based on the study by Casey et al. 2004; Patton et al. 2006. […]

Assay [2] relates to Staphylococcus aureus strain 6571. The settings on record: 37° C., 22 h; for MIC100: lowest concentration giving 100% inhibition. How it is done: as §1, §2, §3, §4, §5, §6, §7, §8, §9
Assay [3] deals with Streptococcus mutans ACM 969. To be noted: lowest concentration giving 100% inhibition, 37° C., growth extended to 44 h. How it is done:
as §1, §2, §3, §4, §5, §6, §7, §8, §9

Where [4] appears, read: listed as oxytetracyclin, hydrochloride.

In the case of `CN(C)[C@@H]1C(O)=C(C(N)=O)C(=O)[C@@]2(O)C(O)=C3C(=O)c4c(O)cccc4[C@@](C)(O)[C@H]3[C@H](O)[C@@H]12.Cl` [Oxytetracylin, Oxytetracyclin hydrochloride], in assay [1], the MIC0 was 2.44 × 10^−5 % w/v. Besides, the MIC100 in assay [1] was 7.88 × 10^−4 % w/v; in assay [2] (hydrochloride) it was <2.44 × 10^−5 % w/v; in assay [2] (setting [4]) it was 2.44×10^−5 % w/v; in assay [3] (hydrochloride), <2.44 × 10^−5 % w/v; in assay [3] (setting [4]), 2.44×10^−5 % w/v.
As for `CC1(C)S[C@@H]2[C@H](NC(=O)Cc3ccccc3)C(=O)N2[C@H]1C(=O)O` [Penicillin G], the MIC0 in assay [1] is given as 4.88 × 10^−5 % w/v; in assay [2] (highest concentration with no inhibition of growth), <2.44 × 10^−5 % w/v. In addition, the MIC100 in assay [1] is reported as 7.81 × 10^−4 % w/v; in assay [2] it was 9.77 × 10^−5 % w/v; in assay [3], <2.44 × 10^−5 % w/v.
